Results taken from PubChem BioAssay (NCI).
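All cell lines were grown in 96-well plates and treated with compound for 48 hours. At the TGI there is no net growth.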

Experiments:
Test in all cases: NCI anticancer screen, dose series, 48 h
[1] = test system: M14 melanoma
[2] = test system: SK-OV-3 ovarian
[3] = test system: RPMI-8226 leukemia
[4] = test system: A549 NSCLC
[5] = test system: SK-MEL-28 melanoma
[6] = test system: LOX IMVI melanoma
[7] = test system: KM20L2 colon
[8] = test system: SW-620 colon
[9] = test system: TK-10 renal
[10] = test system: IGROV1 ovarian
[11] = test system: NCI-H522 lung
[12] = test system: UACC-62 melanoma
[13] = test system: HCT-15 colon
[14] = test system: HOP-62 NSCLC
[15] = test system: NCI-H23 lung
[16] = test system: OVCAR-5 ovarian
[17] = test system: K-562 leukemia
[18] = test system: SF-295 CNS
[19] = test system: HT29 colon
[20] = test system: SNB-75 CNS
[21] = test system: NCI-H460 lung
[22] = test system: HL-60(TB) leukemia
[23] = test system: EKVX NSCLC
[24] = test system: SR leukemia
[25] = test system: CCRF-CEM leukemia
[26] = test system: OVCAR-8 ovarian
[27] = test system: M19-MEL melanoma
[28] = test system: SF-268 CNS
[29] = test system: LXFL 529 NSCLC
[30] = test system: U251 CNS
[31] = test system: DMS 114 small cell lung
[32] = test system: HCT-116 colon
[33] = test system: SK-MEL-5 melanoma
[34] = test system: OVCAR-3 ovarian
[35] = test system: ACHN renal
[36] = test system: COLO 205 colon
[37] = test system: DLD-1 colon
[38] = test system: SF-539 CNS
[39] = test system: RXF 393 renal
[40] = test system: CAKI-1 renal
[41] = test system: SN12C renal
[42] = test system: NCI-H226 lung
[43] = test system: HCC-2998 colon
[44] = test system: UO-31 renal
[45] = test system: UACC-257 melanoma
[46] = test system: SNB-78 CNS
[47] = test system: SNB-19 CNS
[48] = test system: DMS 273 small cell lung
[49] = test system: MOLT-4 leukemia
[50] = test system: HS 578T breast
[51] = test system: 786-0 renal
[52] = test system: MCF7 breast
[53] = test system: MALME-3M melanoma
[54] = test system: OVCAR-4 ovarian
[55] = test system: T-47D breast
[56] = test system: NCI/ADR-RES ovarian
[57] = test system: MDA-MB-435
[58] = test system: KM12 colon
[59] = test system: SK-MEL-2 melanoma
[60] = test system: A498 renal
[61] = test system: DU-145 prostate
[62] = test system: PC-3 prostate
[63] = test system: MDA-MB-231 breast
[64] = test system: BT-549 breast
[65] = test system: HOP-92 NSCLC
[66] = test system: MDA-N

SMILES: O=C1c2ccccc2N(O)C1(c1ccccc1)C1CCCC=C1N1CCOCC1 (stereo not given)
- TGI [1]: > 100 µM
- TGI [2]: > 100 µM
- TGI [3]: > 100 µM
- TGI [4]: > 100 µM
- TGI [5]: > 100 µM
- TGI [6]: > 100 µM
- TGI [7]: > 100 µM
- TGI [8]: > 100 µM
- TGI [9]: > 100 µM
- TGI [10]: > 100 µM
- TGI [11]: 73 µM
- TGI [12]: > 100 µM
- TGI [13]: > 100 µM
- TGI [14]: > 100 µM
- TGI [15]: > 100 µM
- TGI [16]: > 100 µM
- TGI [17]: > 100 µM
- TGI [18]: > 100 µM
- TGI [19]: > 100 µM
- TGI [20]: > 100 µM
- TGI [21]: > 100 µM
- TGI [22]: > 100 µM
- TGI [23]: > 100 µM
- TGI [24]: > 100 µM
- TGI [25]: > 100 µM
- TGI [26]: > 100 µM
- TGI [27]: > 100 µM
- TGI [28]: > 100 µM
- TGI [29]: > 100 µM
- TGI [30]: > 100 µM
- TGI [31]: > 100 µM
- TGI [32]: > 100 µM
- TGI [33]: > 100 µM
- TGI [34]: > 100 µM
- TGI [35]: > 100 µM
- TGI [36]: > 100 µM
- TGI [37]: > 100 µM
- TGI [38]: > 100 µM
- TGI [39]: > 100 µM
- TGI [40]: > 100 µM
- TGI [41]: > 100 µM
- TGI [42]: > 100 µM
- TGI [43]: > 100 µM
- TGI [44]: > 100 µM
- TGI [45]: > 100 µM
- TGI [46]: > 100 µM
- TGI [47]: > 100 µM
- TGI [48]: > 100 µM
- TGI [49]: > 100 µM

SMILES: OC1CC2CCC(C1)N2CCCN1c2ccccc2Sc2ccc(Cl)cc21 (stereo not given)
- TGI [1]: 3.56 µM
- TGI [2]: 11.6 µM
- TGI [3]: 4.42 µM
- TGI [4]: 7.45 µM
- TGI [5]: 3.69 µM
- TGI [6]: 3.33 µM
- TGI [8]: 5.77 µM
- TGI [50]: 4.59 µM
- TGI [9]: 3.61 µM
- TGI [51]: 3.54 µM
- TGI [52]: 3.3 µM
- TGI [10]: 5.01 µM
- TGI [53]: 3.59 µM
- TGI [11]: 4.19 µM
- TGI [12]: 3.39 µM
- TGI [13]: 6.65 µM
- TGI [14]: 10.4 µM
- TGI [54]: 13.6 µM
- TGI [55]: 5.44 µM
- TGI [56]: 6.32 µM
- TGI [57]: 3.31 µM
- TGI [15]: 8.12 µM
- TGI [16]: 8.01 µM
- TGI [58]: 4.08 µM
- TGI [17]: 4.61 µM
- TGI [59]: 3.29 µM
- TGI [18]: 3.67 µM
- TGI [60]: 5.62 µM
- TGI [19]: 3.63 µM
- TGI [20]: 5.23 µM
- TGI [21]: 3.25 µM
- TGI [22]: 6.37 µM
- TGI [23]: 10.1 µM
- TGI [24]: 5.34 µM
- TGI [25]: 4.23 µM
- TGI [26]: 4.86 µM
- TGI [28]: 6.23 µM
- TGI [61]: 9.35 µM
- TGI [30]: 3.45 µM
- TGI [62]: 4.8 µM
- TGI [32]: 3.64 µM
- TGI [63]: 3.66 µM
- TGI [64]: 10.7 µM
- TGI [65]: 9.39 µM
- TGI [33]: 3.13 µM
- TGI [34]: 8.27 µM
- TGI [35]: 7.07 µM
- TGI [36]: 3.35 µM
- TGI [38]: 3.89 µM
- TGI [39]: 4.04 µM
- TGI [40]: 9.47 µM
- TGI [41]: 13.7 µM
- TGI [42]: 15.2 µM
- TGI [43]: 0.959 µM
- TGI [66]: 3.62 µM
- TGI [44]: 7.09 µM
- TGI [45]: 2.6 µM
- TGI [47]: 13.5 µM
- TGI [49]: 5.8 µM

SMILES: CC1(C)Oc2ccc3ccc(=O)oc3c2C(O)C1O (stereo not given)
- TGI [1]: > 100 µM
- TGI [3]: 97.9 µM
- TGI [4]: > 100 µM
- TGI [5]: > 100 µM
- TGI [6]: > 100 µM
- TGI [8]: > 100 µM
- TGI [50]: > 100 µM
- TGI [51]: > 100 µM
- TGI [52]: > 100 µM
- TGI [10]: > 100 µM
- TGI [53]: > 100 µM
- TGI [11]: > 100 µM
- TGI [12]: > 100 µM
- TGI [13]: > 100 µM
- TGI [14]: > 100 µM
- TGI [54]: > 100 µM
- TGI [55]: > 100 µM
- TGI [56]: > 100 µM
- TGI [57]: > 100 µM
- TGI [15]: > 100 µM
- TGI [16]: > 100 µM
- TGI [58]: > 100 µM
- TGI [17]: > 100 µM
- TGI [59]: > 100 µM
- TGI [18]: > 100 µM
- TGI [60]: > 100 µM
- TGI [19]: 71.3 µM
- TGI [20]: > 100 µM
- TGI [21]: > 100 µM
- TGI [22]: > 100 µM
- TGI [23]: > 100 µM
- TGI [24]: > 100 µM
- TGI [25]: 96.9 µM
- TGI [26]: > 100 µM
- TGI [28]: > 100 µM
- TGI [61]: > 100 µM
- TGI [30]: > 100 µM
- TGI [62]: > 100 µM
- TGI [32]: > 100 µM
- TGI [63]: > 100 µM
- TGI [64]: 60.9 µM
- TGI [65]: > 100 µM
- TGI [33]: 29.4 µM
- TGI [34]: > 100 µM
- TGI [35]: > 100 µM
- TGI [36]: 45.1 µM
- TGI [38]: 47.8 µM
- TGI [39]: > 100 µM
- TGI [40]: > 100 µM
- TGI [41]: > 100 µM
- TGI [42]: > 100 µM
- TGI [43]: > 100 µM
- TGI [66]: > 100 µM
- TGI [44]: > 100 µM
- TGI [45]: 94.9 µM
- TGI [47]: > 100 µM
- TGI [49]: 53 µM
